Data reported in ChEMBL document CHEMBL5712086, “Spatially clustered loci with multiple enhancers are frequent targets of HIV-1 integration” (Nat Commun, 2019).
Active and inactive are the calls of the source. No cut-off for these calls is given here.

How the values were obtained:
[1] = target: T1, Bromodomain and extra-terminal motif (BET) (Homo sapiens) (UniProt P25440+O60885+Q58F21+Q15059); conditions: CD4+ T cell, dose 500.0 nM, time 20.0 hrs
[2] = tested on: CD4+ T cell; assay: Down regulation of protein-coding genes proximal to super enhancers in activated human CD+ T cells at 500 nM incubated for 6 hrs by transcriptional profiling relative to coding genes without SE; format: functional, cell-based
[3] = tested on: CD4+ T cell; assay: Upregulation of protein-coding genes proximal to super enhancers in activated human CD+ T cells at 500 nM incubated for 6 hrs by transcriptional profiling relative to coding genes without SE; format: functional, cell-based
[4] = tested on: CD4+ T cell; assay: Effect on spatial localization of recurrent integration genes of HIV-1 in human CD+ T cells at 500 nM incubated for 6 hrs followed by infection for 72 hrs by 3D immuno-DNA FISH assay; format: functional, cell-based; conditions: Human immunodeficiency virus 1, time 78.0 hrs
[5] = tested on: CD4+ T cell; assay: Effect on spatial localization of HIV-1 in human CD+ T cells at 500 nM incubated for 6 hrs followed by infection for 72 hrs by 3D immuno-DNA FISH assay; format: functional, cell-based; conditions: Human immunodeficiency virus 1, time 78.0 hrs
[6] = tested on: CD4+ T cell; assay: Effect on HIV-1 insertion biases in human CD+ T cells assessed as insertion rate per chromosome at 500 nM incubated for 6 hrs; format: functional, cell-based; conditions: Human immunodeficiency virus 1
[7] = target: T1, Bromodomain and extra-terminal motif (BET) (Homo sapiens); conditions: CD4+ T cell, dose 500.0 nM, time 20.0 hrs; remark: listed apart in the source

**Q.** How did the inhibition [1] turn out when `Cc1sc2c(c1C)C(c1ccc(Cl)cc1)=N[C@@H](CC(=O)OC(C)(C)C)c1nnc(C)n1-2` was run?
**A.** Its inhibition is “Active”.

**Q.** And the Activity [2]?
**A.** The Activity was “Active”.

**Q.** What about the Activity [3] of the same molecule?
**A.** The Activity was “Active”.

**Q.** What about the Activity [4] of the same molecule?
**A.** Its Activity is “inactive”.

**Q.** What about the Activity [5] of the same molecule?
**A.** The Activity was “inactive”.

**Q.** What about the Activity [6] of the same molecule?
**A.** Its Activity is “inactive”.

**Q.** What about the inhibition [7] of the same molecule?
**A.** Its inhibition is “Active”.
